This assay addresses T1, Alkaline phosphatase, tissue-nonspecific isozyme (Homo sapiens, UniProt P05186).
T1 sequence (P05186 whole entry): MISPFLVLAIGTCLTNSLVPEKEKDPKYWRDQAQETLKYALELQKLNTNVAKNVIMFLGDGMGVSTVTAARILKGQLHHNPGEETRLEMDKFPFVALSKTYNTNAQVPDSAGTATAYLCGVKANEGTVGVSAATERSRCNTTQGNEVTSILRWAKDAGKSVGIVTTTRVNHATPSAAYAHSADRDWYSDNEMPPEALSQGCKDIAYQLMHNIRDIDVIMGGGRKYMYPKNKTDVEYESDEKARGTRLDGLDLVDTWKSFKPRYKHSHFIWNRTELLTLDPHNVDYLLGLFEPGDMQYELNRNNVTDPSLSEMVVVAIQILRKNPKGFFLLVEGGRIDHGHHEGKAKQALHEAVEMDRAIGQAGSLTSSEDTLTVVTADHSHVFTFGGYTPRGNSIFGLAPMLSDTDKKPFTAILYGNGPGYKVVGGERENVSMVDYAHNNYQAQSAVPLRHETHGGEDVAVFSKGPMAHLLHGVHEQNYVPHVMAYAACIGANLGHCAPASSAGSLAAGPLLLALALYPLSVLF
Kind of assay: TNAP enzyme inhibition by screening hits, dose response, selectivity assay for mouse IAP inhibitor project, biochemical, human TNAP, uHTS hits (AID 488906).
By IC50 is commonly meant the concentration that inhibits the measured activity by half. Low readings indicate higher potency, high ones lower potency. `CC1NON=C1C(=O)NN=CC1=CC(=O)C(=O)C=C1` (stereo not given) [4-Methyl-furazan-3-carboxylic acid (3,4-dihydroxy-benzylidene)-hydrazide] had an IC50 of 16.8 µM.

`O=C1C=CC(C=NNC(=S)Nc2ccccc2[N+](=O)[O-])C=C1O` (stereo not given) [MLS000417596] displayed an IC50 of 1.53 µM.

`O=C(Nn1c(O)csc1=S)C(=O)Nn1c(O)csc1=S` [SMR000349781] returned an IC50 of more than 100 µM.

In turn, `C#CCOCCOCCOCCNc1nc(N2CCN(C(=O)CCCCCCCCCCNC(=O)[C@H]([C@@H](C)CC)n3cc(CCCCN=C(N)N)nn3)CC2)nc(N2CCN(C(=O)CCCCCCCCCCNC(=O)[C@@H]([C@H](C)O)n3cc(C)nn3)CC2)n1` [GT-RI] returned an IC50 of 1.04 µM.

`C#CCOCCOCCOCCNc1nc(N2CCN(C(=O)CCCCCCCCCCNC(=O)[C@@H](CCSC)n3cc(CCO)nn3)CC2)nc(N2CCN(C(=O)CCCCCCCCCCNC(=O)[C@H]([C@@H](C)CC)n3cc(CCCCCN)nn3)CC2)n1` [MLS002153719] had an IC50 of more than 100 µM.

Compound `NS(=O)(=O)c1cc(C(=O)NNC2=c3ccccc3=NC2=O)ccc1Cl` [2-chloro-5-[[(2-oxoindol-3-yl)amino]carbamoyl]benzenesulfonamide] yielded an IC50 of more than 100 µM.

`Cc1ccc(Cl)c2c1NC(=O)/C2=C1/NC(=S)NC1=O`: the IC50 was 0.211 µM.

Regarding `Nc1nnc(CC(=O)N/N=C/C2C=C([N+](=O)[O-])C=C(Br)C2=O)s1` (stereo not given) [2-(5-azanyl-1,3,4-thiadiazol-2-yl)-N'-[(E)-(5-bromanyl-3-nitro-6-oxidanylidene-cyclohexa-2,4-dien-1-ylidene)methyl]ethanehydrazide], it took 20.6 µM to reach half-maximal inhibition (IC50). Against the preceding compound, the IC50 is about 98-fold higher.

For `O=C1C=CC(/C=C/c2nc(O)c([N+](=O)[O-])c(=O)[nH]2)C=C1O` (stereo not given) [SMR000524347], 1.12 µM corresponded to half-maximal inhibition (IC50).

`COc1cc(C=CC(=O)CC(=O)C=Cc2ccc(O)cc2)ccc1O` [demethoxycurcumin] gave an IC50 of more than 100 µM.

Compound `Oc1ccc(CN=Nc2cc(N3CCCC3)nc(N3CCCC3)n2)cc1O` [(4Z)-4-[[2-(2,6-dipyrrolidin-1-ylpyrimidin-4-yl)hydrazinyl]methylidene]-2-hydroxycyclohexa-2,5-dien-1-one] showed an IC50 of more than 100 µM.

In the case of `Oc1ccc(C=Nn2c(O)csc2=S)c(O)c1O` [3-[[(E)-[2,3-bis(oxidanyl)-4-oxidanylidene-cyclohexa-2,5-dien-1-ylidene]methyl]amino]-2-sulfanylidene-1,3-thiazolidin-4-one], 58.5 µM corresponded to half-maximal inhibition (IC50).

In the case of `COc1cc(C=Nn2c(O)csc2=S)ccc1O` [3-[[(E)-(3-methoxy-4-oxidanylidene-cyclohexa-2,5-dien-1-ylidene)methyl]amino]-2-sulfanylidene-1,3-thiazolidin-4-one], the IC50 is more than 100 µM.

Compound `Cc1ccc(/C=C2\SC(=S)N(/N=C/C3C=C([N+](=O)[O-])C=CC3=O)C2=O)o1` (stereo not given) [(5Z)-5-[(5-methylfuran-2-yl)methylidene]-3-[[(E)-(3-nitro-6-oxocyclohexa-2,4-dien-1-ylidene)methyl]amino]-2-sulfanylidene-1,3-thiazolidin-4-one] gave an IC50 of more than 100 µM.

In turn, `C#CCOCCOCCOCCNc1nc(N2CCN(C(=O)CCCCCCCCCCNC(=O)Cn3cc(CCCCCN)nn3)CC2)nc(N2CCN(C(=O)CCCCCCCCCCNC(=O)Cn3cc(C[C@@H](C)O)nn3)CC2)n1` [KG-TG] displayed an IC50 of more than 100 µM.

These data come from BindingDB's records for doi:10.7270/Q2H130G1 (Burnham Center For Chemical Genomics, 2010).
